Experiments:
Details in all cases: 72 h
Caco-2 [1] = test: cell viability relative to DMSO; higher = less toxic
Calu-3 [2] = test: as above
HepG2 [3] = test: as above
U2OS [4] = test: as above
Vero E6 [5] = test: as above
Calu-3 [6] = test: relative viability EC50 (midpoint between 100% and the lowest measured viability); higher = less toxic
Vero E6 [7] = test: as above
Caco-2 [8] = test: drug sensitivity score (DSS) for viability; higher = more toxic; extreme values may be limits of the assay
Calu-3 [9] = test: as above
HepG2 [10] = test: as above
U2OS [11] = test: as above
Vero E6 [12] = test: as above
HepG2 [13] = test: relative viability EC50 (midpoint between 100% and the lowest measured viability); higher = less toxic
Caco-2 [14] = test: as above

Row | SMILES | cell viability (Caco-2 [1]; 1 nM) [%] | cell viability (Caco-2 [1]; 10 nM) [%] | cell viability (Caco-2 [1]; 100 nM) [%] | cell viability (Caco-2 [1]; 1000 nM) [%] | cell viability (Caco-2 [1]; 10000 nM) [%] | cell viability (Calu-3 [2]; 1 nM) [%] | cell viability (Calu-3 [2]; 10 nM) [%] | cell viability (Calu-3 [2]; 100 nM) [%] | cell viability (Calu-3 [2]; 1000 nM) [%] | cell viability (Calu-3 [2]; 10000 nM) [%] | cell viability (HepG2 [3]; 1 nM) [%] | cell viability (HepG2 [3]; 10 nM) [%] | cell viability (HepG2 [3]; 100 nM) [%] | cell viability (HepG2 [3]; 1000 nM) [%] | cell viability (HepG2 [3]; 10000 nM) [%] | cell viability (U2OS [4]; 1 nM) [%] | cell viability (U2OS [4]; 10 nM) [%] | cell viability (U2OS [4]; 100 nM) [%] | cell viability (U2OS [4]; 1000 nM) [%] | cell viability (U2OS [4]; 10000 nM) [%] | cell viability (Vero E6 [5]; 1 nM) [%] | cell viability (Vero E6 [5]; 10 nM) [%] | cell viability (Vero E6 [5]; 100 nM) [%] | cell viability (Vero E6 [5]; 1000 nM) [%] | cell viability (Vero E6 [5]; 10000 nM) [%] | relative viability EC50 (Calu-3 [6]) [µM] | relative viability EC50 (Vero E6 [7]) [µM] | drug sensitivity score (Caco-2 [8]) | drug sensitivity score (Calu-3 [9]) | drug sensitivity score (HepG2 [10]) | drug sensitivity score (U2OS [11]) | drug sensitivity score (Vero E6 [12]) | relative viability EC50 (HepG2 [13]) [µM] | relative viability EC50 (Caco-2 [14]) [µM]
1 | C=CC(=O)Nc1ccc2ncnc(Nc3cccc(Br)c3)c2c1 | 83.2 | 86.7 | 92 | 71 | 70.6 | 96 | 79.1 | 46.5 | 32.9 | 35.4 | 100 | 98.7 | 95.2 | 93.6 | 65 | 96.8 | 107 | 93 | 87.9 | 62.8 | 96.8 | 89.6 | 71 | 50.7 | 19.7 | 0.0229 | 0.287 | 6.7 | 21 | 2.7 | 3 | 13.6 |  | 
2 | CCCCC/N=c1\ccn(Cc2ccccc2)c2ccccc12 | 93.3 | 94.9 | 103 | 98.5 | 63 | 97 | 98.2 | 96.1 | 104 | 65.5 | 96.3 | 99.3 | 96 | 94.3 | 33.9 | 101 | 94.4 | 100 | 97.5 | 64.3 | 94.9 | 100 | 90.6 | 99.2 | 94.2 |  | > 10 | 2 | 1.4 | 4.5 | 2.1 | 0 | 2.46 | 
3 | CCOC(=O)c1ncc2[nH]c3ccc(OCc4ccccc4)cc3c2c1COC | 99.8 | 97 | 90.6 | 79.1 | 63.7 | 110 | 89.2 | 96.6 | 104 | 70.9 | 102 | 105 | 101 | 69.5 | 14.1 | 96 | 94.9 | 99 | 90.9 | 64.7 | 91.9 | 97.3 | 87.9 | 93.5 | 85 |  | > 10 | 4.3 | 1 | 9 | 3.1 | 0.3 | 1.27 | 
4 | CNS(=O)(=O)Nc1nccc(Cc2c(C)c3ccc(Oc4ncccn4)cc3oc2=O)c1F | 99.8 | 89.4 | 82.9 | 73.4 | 62.5 | 105 | 96 | 70.8 | 50.1 | 40.8 | 101 | 91.8 | 38.3 | 23.8 | 13.8 | 98.2 | 97.9 | 94.3 | 85.7 | 70.8 | 94.6 | 92.9 | 75.4 | 57 | 50.3 | 0.116 |  | 6.7 | 13.1 | 23.5 | 2.5 | 10.9 | 0.0515 | 
5 | N#Cc1ccc(Cn2cncc2CN2CCN(c3cccc(Cl)c3)C(=O)C2)cc1 | 102 | 106 | 107 | 97.2 | 87 | 104 | 88.2 | 87.1 | 96.4 | 67.5 | 108 | 100 | 107 | 93.3 | 49.9 | 96.1 | 104 | 98.4 | 99.2 | 68.7 | 107 | 102 | 95.4 | 99.9 | 85.5 |  | > 10 | 0.3 | 2.1 | 3.8 | 1.5 | 0.2 | 2.09 | > 10
6 | O=C(Nc1ccc(S(=O)(=O)Nc2nccs2)cc1)C(c1ccccc1)c1ccccc1 | 105 | 101 | 113 | 99 | 103 |  |  |  |  |  | 104 | 105 | 103 | 110 | 95.3 |  |  |  |  |  |  |  |  |  |  |  |  | 0 |  | 0 |  |  | > 10 | > 10
7 | Nc1nc(O)c2nc(Br)n([C@@H]3O[C@@H]4COP(=O)(O)O[C@H]4[C@H]3O)c2n1 [8-bromo-cGMP] |  |  |  |  |  | 105 | 94.3 | 107 | 90.5 | 113 | 101 | 103 | 94.6 | 110 | 108 |  |  |  |  |  |  |  |  |  |  | > 10 |  |  | 0 | 0 |  |  | > 10 | 
8 | O=C(O)Cc1cc2ccccc2nc1C(=O)O [CCMQ] | 106 | 111 | 103 | 98.2 | 98.4 |  |  |  |  |  | 107 | 110 | 95.6 | 109 | 96.9 |  |  |  |  |  |  |  |  |  |  |  |  | 0 |  | 0 |  |  | > 10 | > 10
9 | Cc1nc(N)sc1-c1ccnc(Nc2ccc(N3CCOCC3)cc2)n1 [CYC116] | 99.3 | 87.4 | 98.8 | 87.7 | 75.1 | 104 | 109 | 101 | 105 | 75.5 | 97.9 | 106 | 97.9 | 77.8 | 28.4 | 104 | 102 | 103 | 89.6 | 53.7 | 100 | 103 | 99 | 80.8 | 51.6 | > 10 |  | 1.7 | 0.7 | 7.2 | 4.1 | 5.1 | 1.38 | > 10
10 | CC(=O)[C@@]1(O)CC[C@H]2[C@@H]3C=C(Cl)C4=CC(=O)[C@@H]5C[C@@H]5[C@]4(C)[C@H]3CC[C@@]21C [CYPROTERONE] | 106 | 89.5 | 112 | 102 | 95 | 99.5 | 101 | 103 | 86.6 | 97.4 |  |  |  |  |  |  |  |  |  |  | 101 | 107 | 99.5 | 104 | 94.9 | > 10 | > 10 | 0 | 0 |  |  | 0 |  | > 10
11 | COC(=O)[C@H](CC(C)C)NC(=O)c1ccc(NC[C@@H](N)CS)cc1-c1cccc2ccccc12 [GGTI-298] | 92.3 | 100 | 95.2 | 98.8 | 75.9 | 93.1 | 104 | 88.8 | 100 | 93.7 | 90.4 | 106 | 101 | 93.8 | 100 | 95.3 | 97.4 | 92.7 | 94.3 | 60.9 | 105 | 110 | 104 | 86.3 | 92.7 | > 10 | > 10 | 1 | 0 | 0 | 2.9 | 0.9 | > 10 | > 10
12 | N[C@@H](CS)C(=O)O [L-cysteine] |  |  |  |  |  |  |  |  |  |  |  |  |  |  |  |  |  |  |  |  |  |  |  |  |  |  |  |  | 0 | 0.2 | 0 | 0 |  | 
13 | Cn1cnc(-c2cc3nccc(Oc4ccc(NC(=S)NC(=O)Cc5ccccc5)cc4F)c3s2)c1 [MGCD-265] | 97 | 99.8 | 98.3 | 84 | 63.6 | 96.6 | 93.1 | 100 | 86.9 | 62.3 | 103 | 92.7 | 97.6 | 97.9 | 80.6 | 102 | 95.9 | 103 | 96.5 | 67.3 | 106 | 106 | 103 | 104 | 77.3 |  | > 10 | 3.5 | 3.7 | 0.8 | 2 | 0.6 | > 10 | 
14 | Oc1cccc(-c2nc(N3CCOCC3)c3oc4ncccc4c3n2)c1 [PI-103] | 100 | 96.9 | 81.2 | 42.4 | 49.9 | 105 | 95.1 | 81.9 | 84.1 | 53.6 | 98.8 | 104 | 99.7 | 70.9 | 62 | 103 | 100 | 97 | 69.4 | 76.6 | 98.3 | 96.2 | 87.9 | 50.5 | 53 |  |  | 13.1 | 5.1 | 5.3 | 5.6 | 11 |  | 0.14
15 | O=C(CBr)N1CC([N+](=O)[O-])([N+](=O)[O-])C1 [RRx-001] | 105 | 98.3 | 113 | 104 | 105 | 101 | 91.6 | 116 | 100 | 100 | 102 | 114 | 109 | 106 | 94.8 |  |  |  |  |  | 106 | 106 | 99.6 | 102 | 102 | > 10 | > 10 | 0 | 0 | 0 |  | 0 | > 10 | > 10
16 | COCCOCCOc1ccc(C2=N[C@@](C)(C(=O)O)CS2)c(O)c1 [SP-420] | 91.5 | 92.1 | 94.1 | 96 | 54 | 95.1 | 102 | 103 | 95.5 | 91.4 | 99.8 | 94.7 | 93 | 102 | 70.6 | 103 | 99.5 | 108 | 98.5 | 65.4 | 95 | 98.5 | 98.3 | 105 | 100 | > 10 | > 10 | 3 | 0 | 1.1 | 1.8 | 0 |  | 
17 | CCC(=O)O[C@H]1CC[C@H]2[C@@H]3CCC4=CC(=O)CC[C@]4(C)[C@H]3CC[C@]12C [TESTOSTERONE PROPIONATE] |  |  |  |  |  |  |  |  |  |  |  |  |  |  |  |  |  |  |  |  |  |  |  |  |  |  |  |  |  | 0 | 0 | 0 |  | 
